Reference: paper PMC8283759, “A Flavoprotein Dioxygenase Steers Bacterial Tropone Biosynthesis via Coenzyme A-Ester Oxygenolysis and Ring Epoxidation” (Journal of the American Chemical Society, 2021)

Molecular target: T1, TdaEBp (Burkholderia plantarii, UniProt A0A0B6RWE3)
T1 construct: gene BGL_1c08010; heterologously produced and purified, N-terminal GB1 (subunit B of protein G) and C-terminal polyhistidine tag
Assay: UV-vis of purified protein (c280/c450)
Assay type: binding
Details: loosely bound, co-purified; partial occupancy

T1 sequence (A0A0B6RWE3 entry or part of it): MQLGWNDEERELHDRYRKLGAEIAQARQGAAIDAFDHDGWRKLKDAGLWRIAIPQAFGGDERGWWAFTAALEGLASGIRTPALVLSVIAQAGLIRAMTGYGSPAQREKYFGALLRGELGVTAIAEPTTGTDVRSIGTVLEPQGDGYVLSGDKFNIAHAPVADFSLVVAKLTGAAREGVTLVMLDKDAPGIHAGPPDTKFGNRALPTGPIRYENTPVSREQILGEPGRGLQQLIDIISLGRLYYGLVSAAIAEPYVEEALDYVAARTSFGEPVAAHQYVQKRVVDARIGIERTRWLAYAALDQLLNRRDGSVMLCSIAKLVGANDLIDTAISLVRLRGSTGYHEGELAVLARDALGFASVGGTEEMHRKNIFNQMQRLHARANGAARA

Cc1cc2nc3c(=O)[nH]c(=O)nc-3n(C[C@H](O)[C@H](O)[C@H](O)COP(=O)(O)OP(=O)(O)OC[C@H]3O[C@@H](n4cnc5c(N)ncnc54)[C@H](O)[C@@H]3O)c2cc1C [FAD]
UV-vis of purified protein (c280/c450): TdaE^Bp was weakly yellow due to a loosely bound FAD cofactor
